Data as given in PMC11161644, “An effective and rapidly degradable disinfectant from disinfection byproducts” (Nature Communications, 2024).
“And” between values parts separate entries of the source, which are not always exact repeats. Equal values may be shown once.

Tests used:
S. aureus (ATCC 25923) = experiment: Inactivation of S. aureus (contact time 5 min); format: cell-based, Staphylococcus aureus
Procedure, shortened: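 Cells (10^6‒10^7 per mL) in 10 mM PBS pH 7.2 exposed to a series of DBP doses for 5 min at 22 ± 1 °C. Survivors enumerated by membrane filtration and colony counts after 24 h at 37 °C (S. aureus, Tryptone Soya; C. albicans, Sabouraud) relative to undisinfected control.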

P. dumerilii embryos = experiment: Developmental toxicity assay with P. dumerilii embryos, dilution factor of in-use concentration (EC50,DF), also after degradation in darkness; format: in vivo, Platynereis dumerilii; settings: for Normal development: PCMX
Procedure, shortened: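 In-use DBP doses (3-log E. coli reduction, pH 7.2) were serially diluted onto embryos at 12 h postfertilization in seawater. Normal development to first larval stage was scored by microscopy at 24 h postfertilization, in duplicate. EC50,DF is the dilution factor giving 50% of control normal development.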

[1] = Degradation in seawater with simulated solar irradiation
Procedure, shortened: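 DBP at 10 mg L^−1 in pretreated seawater was irradiated with simulated sunlight (4.79 ± 0.04 mW cm^−2) at 20 °C for 0‒96 h, with dark samples alongside. pH was held at 8.2 or set to 6.2/7.2 with 4 mM phosphate buffer. Remaining compound and products were measured by HPLC-UV (230/280 nm), in duplicate.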

[2] = Degradation in seawater in darkness (pH 6.2, 7.2, 8.2)
Procedure, shortened: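 DBP spiked at 10 mg L^−1 into pretreated seawater in foil-wrapped quartz flasks, held at 20 °C in darkness for 0‒120 h with 4 mM phosphate buffer at pH 6.2, 7.2 or 8.2. Aliquots analysed by reversed-phase HPLC-UV (230 or 280 nm); duplicate runs.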

Cc1cc(O)cc(C)c1Cl [PCMX, para-chloro-meta-xylenol, reference compound]
log reduction at 300 µg/mL (S. aureus (ATCC 25923); Staphylococcus aureus, ATCC25923, 5 min, pH 7.2, S. aureus, dose 300 mg L-1, pH 7.2, contact time 5 min, read-out: Log (N/N0)): 3.04
Dose for achieving 3-log inactivation of S. aureus (S. aureus (ATCC 25923); pH 7.2, contact time 5 min): 308 mg L−1
S. aureus inactivation rate constant k (S. aureus (ATCC 25923); pH 7.2, contact time 5 min): 3670 µL/min/mg
Normal development (P. dumerilii embryos; degradation 0 h, dilution factor 6.7143): 0%
Normal development (P. dumerilii embryos; degradation 0 h, dilution factor 7.2308): 4.232% and 2.756%
Normal development (P. dumerilii embryos; degradation 0 h, dilution factor 7.6735): 25.4292% and 17.7492%
Normal development (P. dumerilii embryos; degradation 0 h, dilution factor 8.1739): 29.4152% and 29.5272%
Normal development (P. dumerilii embryos; degradation 0 h, dilution factor 8.7442): 46.2529% and 46.0367%
Normal development (P. dumerilii embryos; degradation 0 h, dilution factor 9.4): 56.894% and 62.197%
Normal development (P. dumerilii embryos; degradation 0 h, dilution factor 10.4444): 76.1488% and 70.708%
Normal development (P. dumerilii embryos; degradation 0 h, dilution factor 11.75): 84.2318% and 84.1758%
Normal development (P. dumerilii embryos; degradation 48 h, dilution factor 6.7143): 0%
Normal development (P. dumerilii embryos; degradation 48 h, dilution factor 7.2308): 0%
Normal development (P. dumerilii embryos; degradation 48 h, dilution factor 7.6735): 5.72% and 1.379%
Normal development (P. dumerilii embryos; degradation 48 h, dilution factor 8.1739): 20.3803% and 14.4749%
Normal development (P. dumerilii embryos; degradation 48 h, dilution factor 8.7442): 43.6056% and 44.3682%
Normal development (P. dumerilii embryos; degradation 48 h, dilution factor 9.4): 43.7739% and 49.5131%
Normal development (P. dumerilii embryos; degradation 48 h, dilution factor 10.4444): 54.207% and 47.1234%
Normal development (P. dumerilii embryos; degradation 48 h, dilution factor 11.75): 73.3565% and 68.3577%
Normal development (%) (P. dumerilii embryos; dilution factor 6.7143 of in-use concentration): 0%
Normal development (%) (P. dumerilii embryos; dilution factor 7.2308): 4.232% and 2.756%
Normal development (%) (P. dumerilii embryos; dilution factor 7.6735): 25.4292% and 17.7492%
Normal development (%) (P. dumerilii embryos; dilution factor 8.1739): 29.4152% and 29.5272%
Normal development (%) (P. dumerilii embryos; dilution factor 8.7442): 46.0367% and 46.2529%
Normal development (%) (P. dumerilii embryos; dilution factor 9.4): 62.197% and 56.894%
Normal development (%) (P. dumerilii embryos; dilution factor 10.4444): 76.1488% and 70.708%
Normal development (%) (P. dumerilii embryos; dilution factor 11.75): 84.2038%
half-life at 10 mg L−1 ([1]; pretreated seawater under simulated solar irradiation, pH 8.2): 10.7 days
Ln (C/C0) ([1]; seawater pH 8.2, solar irradiation, 0 h): 0
half-life at 10 mg L−1 ([2]; pretreated seawater in darkness): ~240 days
Ln (C/C0) ([2]; seawater pH 8.2, darkness, 0 h): 0
Degradation in 120 h ([2]; seawater, absence of sunlight): less than 5%
